Experimental data as given in ChEMBL document CHEMBL3217658, “Scaffold-hopping from aminoglycosides to small synthetic inhibitors of bacterial protein biosynthesis using a pseudoreceptor model” (Medchemcomm, 2011).
Values after ≈ are worked out from the molar mass of the structure shown. Active and inactive are the calls of the source. The calls are words filed in the database; no cut-off is given here.

What follows are compounds tested against Transient receptor potential cation channel subfamily V member 1 (Homo sapiens, UniProt Q8NER1) (assay: Inhibition of TRPV1-mediated membrane currents in human DRG neurons). Details: not given.
Transient receptor potential cation channel subfamily V member 1, sequence (Q8NER1 whole entry): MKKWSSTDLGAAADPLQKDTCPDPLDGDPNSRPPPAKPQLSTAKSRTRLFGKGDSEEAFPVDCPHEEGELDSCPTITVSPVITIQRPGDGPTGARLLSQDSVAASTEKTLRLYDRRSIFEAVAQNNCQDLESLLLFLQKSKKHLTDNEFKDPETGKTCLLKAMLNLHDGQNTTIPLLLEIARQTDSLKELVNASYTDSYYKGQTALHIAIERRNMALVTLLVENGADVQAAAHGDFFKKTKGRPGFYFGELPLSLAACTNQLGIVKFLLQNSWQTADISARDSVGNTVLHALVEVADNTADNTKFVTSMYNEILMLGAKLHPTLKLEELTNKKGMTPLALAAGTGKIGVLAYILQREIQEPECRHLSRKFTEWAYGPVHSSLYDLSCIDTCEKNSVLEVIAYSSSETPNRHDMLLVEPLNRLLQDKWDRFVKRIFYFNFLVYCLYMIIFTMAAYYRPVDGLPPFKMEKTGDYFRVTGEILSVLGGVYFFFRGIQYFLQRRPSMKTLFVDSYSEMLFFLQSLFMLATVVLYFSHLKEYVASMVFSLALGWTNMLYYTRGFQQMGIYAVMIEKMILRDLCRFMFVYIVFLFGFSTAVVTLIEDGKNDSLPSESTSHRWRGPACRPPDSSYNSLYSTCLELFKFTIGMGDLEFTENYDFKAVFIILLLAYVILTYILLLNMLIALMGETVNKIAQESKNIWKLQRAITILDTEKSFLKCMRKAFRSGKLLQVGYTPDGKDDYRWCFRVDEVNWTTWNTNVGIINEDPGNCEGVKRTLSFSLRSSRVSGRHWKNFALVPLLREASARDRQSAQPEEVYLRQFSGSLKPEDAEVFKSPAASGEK

Compound | IC50
NC[C@@H]1O[C@H](O[C@H]2[C@@H](O)[C@H](O[C@@H]3[C@@H](O)[C@H](N)C[C@H](N)[C@H]3O[C@H]3O[C@H](CN)[C@@H](O)[C@H](O)[C@H]3N)O[C@@H]2CO)[C@H](N)[C@@H](O)[C@@H]1O [FRAMYCETIN] | 400 nM

These compounds were tested on Bacillus subtilis (assay: Antibacterial activity against Bacillus subtilis 168 assessed as growth inhibition at 0.5 to 500 uM after 20 hrs by microtiter broth dilution method). Details: subsp. subtilis str. 168.
Format: functional, organism-based

Compound | growth inhibition (GI)
COc1cc(CNCCc2c[nH]c3ccccc23)cc(Cl)c1OCC(N)=O | inactive

These compounds were tested on Bacillus subtilis (assay: Antibacterial activity against Bacillus subtilis 168 assessed as growth inhibition after 20 hrs by microtiter broth dilution method). Details: subsp. subtilis str. 168, 20 h.
Format: functional

Compound | MIC
COc1cccc(CNCCc2c[nH]c3ccccc23)c1OCc1ccccc1F | 125 µM (≈ 50.6 µg/mL)
COc1cc(CNCCc2c[nH]c3ccccc23)ccc1OCc1ccc(F)cc1 | 63 µM (≈ 25.5 µg/mL)
COc1cc(CNC(=O)CCCC/C=C/C(C)C)ccc1O [CAPSAICIN] | 63 µM (≈ 19.2 µg/mL)
COc1cc(CNCCc2c[nH]c3ccccc23)ccc1OCc1ccc(Cl)nc1 | 250 µM (≈ 105 µg/mL)

These compounds were tested on Escherichia coli (assay: Binding affinity to Escherichia coli ribosomal A-site assessed as inhibition of GFP biosynthesis at 500 uM by transcription/translation assay relative to chloramphenicol). Details: not given.

Compound | inhibition
CNCCCNCc1ccc(OCC(N)=O)c(OC)c1 | inactive
OCC(O)C(O)C(O)C(O)C1NNC(=S)NN1 (configuration not stated) | inactive
Nc1[nH]c(C2OC(CO)C(O)C2O)nc1C(=O)NCc1ccccc1 (configuration not stated) | 22%
CC(=O)N1[C@H](CO)CS[C@@H]1[C@H](O)[C@@H](O)[C@@H](O)[C@H](O)CO | inactive
COc1cccc(CNCCc2c[nH]c3ccccc23)c1OCc1ccccc1F | 71%
COc1cc(CNCCc2c[nH]c3ccccc23)cc(Cl)c1OCC(N)=O | 82%
NC(=O)c1ncn([C@H]2C[C@@H](CO)[C@H](O)[C@@H]2O)n1 | inactive
CC(O)CNCCNCc1cccc2ccccc12 (configuration not stated) | 64%
CC(O)CNCCNCc1ccccc1 (configuration not stated) | 36%
O=c1[nH]c(=O)n2c(c1[N+](=O)[O-])NC(C(O)C(O)C(O)CO)C2O (configuration not stated) | 13%
Nc1cc(NC2OC(CO)C(O)C(O)C2O)ccc1[N+](=O)[O-] (configuration not stated) | 61%
